Data set [1] has as its system SARS-CoV-2 original virus (SARS-CoV-2/human/Denmark/DK-AHH1/2020). Briefly: microbe, parasite or virus in culture. Format: cell-based.
The conditions of data set [2]: human, in vivo; cited from earlier work.
The test system of data set [3] is VeroE6 and A549-hACE2 cells.
Setting [4] is: Severe acute respiratory syndrome coronavirus 2.
The mark [5] stands for this setting: Severe acute respiratory syndrome coronavirus 2, Vero C1008.

Take `CC(C)(C)[C@H](NC(=O)C(F)(F)F)C(=O)N1C[C@H]2[C@@H]([C@H]1C(=O)N[C@H](C#N)C[C@@H]1CCNC1=O)C2(C)C` [NIR, Nirmatrelvir]: the EC50 in data set [1] (setting [4]) is 40 nM; in data set [1] (setting [5]), 2900 nM.

As to `Cn1cnc(Cn2c(=O)[nH]/c(=N\c3cc4cn(C)nc4cc3Cl)n(Cc3cc(F)c(F)cc3F)c2=O)n1` [ENS, Ensitrelvir], the Cmax in data set [2] was 57 µM. Besides, the “Cytotoxicity (cell viability, CC50)” value in data set [3] was “low”. For the same compound, the EC50 in data set [1] (setting [4]) came out at 100 nM; in data set [1] (setting [5]), 420 nM.

One may read the EC50 as the concentration at which the effect is half-maximal. Lower therefore signals greater potency. In general, Cmax refers to the peak of the concentration-time curve.

(Values after paper PMC12529750 (Emerging Microbes & Infections, 2025).)
